Source: patent US7977434B2, “Polymeric hydrophobic aminonitrile quats used for bleach activation” (BASF Aktiengesellschaft, priority 2005, dated 2011)

Key:
Settings in all cases: 25° C., 1% bleach activator, 15% by weight sodium percarbonate in color laundry detergent, 30 min wash
[1] = Launderometer bleaching test, red wine stain
Procedure: (§1) Standard test in a launderometer with 5% activator addition at 25° C. and 50° C. of tea-, red wine-, grass- and curry-stained fabric. In addition, the removal of triolein and olive oil stains from cotton fabric is investigated. To this end, triolein and olive oil are dyed with 0.1% Sudan red 7 B (=Solvent Red 19). This dye is dissolved and homogenized beforehand with gentle warming. The preparation is effected by adding dropwise with a pipette, in the course of which the test fabric is stretched. 0.1 g of the solution is added dropwise and spreads on the fabric overnight. All test specimens are determined twice.
(§2) To this end, 15% by weight of bleach (sodium percarbonate) and 1.2 and 5% by weight of the appropriate activator are mixed into a commercial color laundry detergent which is homogenized in dry form.
The bleaching experiments in the launderometer are evaluated by reflectance measurement and calculation of the bleaching action on the bleachable stains used (tea, red wine, grass, curry, triolein and olive oil). The standard deviation of the reflectance R is <1%. […]
Mixing of stock hardness 1 (Ca^+++Mg^++) and stock hardness 2 (NaHCO3), both 0.8 mol/l in each case. […] The water hardness is determined by using Titriplex solution. • Stock hardness 1 94.09 g of calcium chloride 2H2O and 32.53 g of magnesium chloride. […]

[2] = Launderometer bleaching test, tea stain
Procedure: (§3) […] In addition, the removal of triolein and olive oil stains from cotton fabric is investigated. To this end, triolein and olive oil are dyed with 0.1% Sudan red 7 B (=Solvent Red 19). This dye is dissolved and homogenized beforehand with gentle warming. The preparation is effected by adding dropwise with a pipette, in the course of which the test fabric is stretched. 0.1 g of the solution is added dropwise and spreads on the fabric overnight. All test specimens are determined twice.
(§4) The bleaching experiments in the launderometer are evaluated by reflectance measurement and calculation of the bleaching action on the bleachable stains used (tea, red wine, grass, curry, triolein and olive oil).
(§5) Commercially unavailable stains such as tea, chlorophyll were premeasured individually.
(§6) Mixing of stock hardness 1 (Ca^+++Mg^++) and stock hardness 2 (NaHCO3), both 0.8 mol/l in each case. Hard water is tested before use. The water hardness is determined by using Titriplex solution. • Stock hardness 1 94.09 g of calcium chloride 2H2O and 32.53 g of magnesium chloride. […]

[3] = Launderometer bleaching test, grass stain
Procedure: as §3, §4, §5, §6

[4] = Launderometer bleaching test, curry stain
Procedure: as §1, §2
(§7) The bleaching experiments in the launderometer are evaluated by reflectance measurement and calculation of the bleaching action on the bleachable stains used (tea, red wine, grass, curry, triolein and olive oil). The standard deviation of the reflectance R is <1%.
as §6

[5] = Launderometer test, removal of triolein stain dyed with Sudan red 7 B
Procedure: as §1, §2, §7, §6

[6] = Launderometer test, removal of olive oil stain dyed with Sudan red 7 B
Procedure: as §1, §2, §7, §6

SMILES | reflectance, Red wine [1] [%] | reflectance, Tea [2] [%] | reflectance, Grass [3] [%] | reflectance, Curry [4] [%] | reflectance, Triolein [5] [%] | reflectance, Olive oil [6] [%]
C[N+]1(CC#N)CCOCC1.O=S(=O)([O-])O [BMG, methylmorpholinioacetonitrile hydrogensulfate] | 61.8 | 48.5 | 40.1 | 69.2 | 42.2 | 39.9
CC(=O)N(CCN(C(C)=O)C(C)=O)C(C)=O [TAED, tetraacetylethylenediamine] | 58.4 | 34.5 | 39.2 | 65.1 | 42.6 | 40.0
